Test results taken from BindingDB's records for doi:10.1111/cbdd.12836 (Korea Institute of Science and Technology, 2017).

What was measured:
[1] = molecular target: Serine/threonine-protein kinase B-raf [V600E] (Homo sapiens, UniProt P15056, V600E); test: In vitro Enzyme Assay; details: pH 7.5; 25 °C
Description: (§1) Reaction Biology Corporation Kinase HotSpotSM service: In a final reactionvolume of 25 μL, kinase (5-10 mU) is incubated with 25 mM Tris pH 7.5, 0.02 mM ethylene glycol tetracetic acid (EGTA), 0.66 mg/mL myelin basic protein, […], and [γ33P-ATP] (specific activity approx. 500 c.p.m./pmol,concentration as required). The reaction is initiated by the addition of the Mg-ATP mix. After incubation for 40 min at room temperature, the reaction is stopped by the addition of 5 μL of a 3% phosphoric acid solution. About 10 μL ofthe reaction solution is then spotted onto a P30 filtermat and washed three times for 5 min in 75 mM phosphoric acid and once in methanol prior to drying and scintillation counting.

[2] = molecular target: RAF proto-oncogene serine/threonine-protein kinase (Homo sapiens, UniProt P04049); test: In vitro Enzyme Assay; details: pH 7.5; 25 °C
Description: as §1

Serine/threonine-protein kinase B-raf [V600E], sequence (P15056 2-766 V600E limits assumed): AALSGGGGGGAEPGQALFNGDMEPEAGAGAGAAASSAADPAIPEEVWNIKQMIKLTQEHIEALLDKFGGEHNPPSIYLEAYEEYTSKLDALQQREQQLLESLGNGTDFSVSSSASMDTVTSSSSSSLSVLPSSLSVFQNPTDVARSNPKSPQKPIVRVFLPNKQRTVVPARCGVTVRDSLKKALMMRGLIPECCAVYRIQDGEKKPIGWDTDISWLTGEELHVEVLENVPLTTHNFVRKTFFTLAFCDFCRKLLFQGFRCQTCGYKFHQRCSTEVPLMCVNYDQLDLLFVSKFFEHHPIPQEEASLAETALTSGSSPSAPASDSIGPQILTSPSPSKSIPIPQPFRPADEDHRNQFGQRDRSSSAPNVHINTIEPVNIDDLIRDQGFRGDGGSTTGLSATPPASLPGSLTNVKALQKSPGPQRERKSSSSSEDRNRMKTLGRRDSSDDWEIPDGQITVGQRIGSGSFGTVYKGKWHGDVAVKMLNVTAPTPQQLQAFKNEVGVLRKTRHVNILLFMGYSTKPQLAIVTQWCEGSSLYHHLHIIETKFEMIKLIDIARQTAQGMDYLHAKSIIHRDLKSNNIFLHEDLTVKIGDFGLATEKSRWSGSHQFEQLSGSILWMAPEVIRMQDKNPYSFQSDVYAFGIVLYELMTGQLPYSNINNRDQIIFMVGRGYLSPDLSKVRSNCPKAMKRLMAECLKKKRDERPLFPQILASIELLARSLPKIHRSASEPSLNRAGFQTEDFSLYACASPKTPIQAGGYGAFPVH
RAF proto-oncogene serine/threonine-protein kinase, sequence (P04049 whole entry): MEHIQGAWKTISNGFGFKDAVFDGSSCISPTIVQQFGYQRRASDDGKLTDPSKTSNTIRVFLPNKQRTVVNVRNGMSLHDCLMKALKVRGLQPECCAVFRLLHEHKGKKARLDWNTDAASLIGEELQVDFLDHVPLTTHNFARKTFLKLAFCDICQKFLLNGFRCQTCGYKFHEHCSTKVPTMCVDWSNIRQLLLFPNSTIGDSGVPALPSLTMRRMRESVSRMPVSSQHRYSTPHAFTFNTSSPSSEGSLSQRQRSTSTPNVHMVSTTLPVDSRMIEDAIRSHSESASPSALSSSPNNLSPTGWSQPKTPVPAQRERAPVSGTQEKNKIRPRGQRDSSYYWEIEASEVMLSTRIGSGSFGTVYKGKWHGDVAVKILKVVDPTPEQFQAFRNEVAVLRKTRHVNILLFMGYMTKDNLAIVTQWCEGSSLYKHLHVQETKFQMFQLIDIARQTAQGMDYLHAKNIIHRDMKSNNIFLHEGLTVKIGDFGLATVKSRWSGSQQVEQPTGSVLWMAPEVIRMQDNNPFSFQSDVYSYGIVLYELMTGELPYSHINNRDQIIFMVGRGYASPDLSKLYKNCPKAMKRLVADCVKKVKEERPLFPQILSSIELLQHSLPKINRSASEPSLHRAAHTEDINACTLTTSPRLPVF

IC50 [1] [µM] | IC50 [2] [µM] | SMILES
> 100 | 92.6 | CNC(=O)c1cc(Oc2cccc3nc(Nc4cccc(C(C)(C)C)c4)ccc23)ccn1 [4-((2-((3-(Tert-butyl)phenyl)amino)quinolin-5-yl)oxy)-N-methylpicolinamide (6d)]
> 100 | > 100 | CNC(=O)c1cc(Oc2cccc3nc(Nc4ccc(Cl)c(C(F)(F)F)c4)ccc23)ccn1 [4-((2-((4-Chloro-3-(trifluoromethyl)phenyl)amino)quinolin-5-yl)oxy)-N-methylpicolinamide (6j)]
